In brackets after ≈: the same amount, converted by molar mass.
Assays:
[1] = system: Respiratory syncytial virus A2; test: microbe, parasite or virus in culture; format: cell-based
[2] = system: Influenza A virus H1N1 California/07/2009; test: microbe, parasite or virus in culture; format: cell-based
Lassa fever virus Josiah = test: organism not typed; format: cell-based
mouse norovirus (MNV-1) = test: Mouse norovirus CPE inhibition (NR), RAW264.7 (17-09); format: cell-based; conditions: Norovirus
Zika Virus = test: Zika prevention, CPE inhibition (Neutral Red), Vero 76, 24 h pre-incubation (Zika-138); format: cell-based; conditions: Zika virus, Neutral Red (Cytopathic effect), pre-incubated 24 hours prior to infection, read-out: EC50
[3] = Cell Titer-Glo toxicity in C-33A cells (HPV16-15); conditions: human

## COc1c(C)c2c(c(O)c1C/C=C(\C)CCC(=O)O)C(=O)OC2 [EP1601, 6-(4-hydroxy-6-methoxy-7-methyl-3-oxo-1,3-dihydroisobenzofuran-5-yl)-4-methyl-hex-4-enoic acid]
[1]
  activity against Respiratory Syncytial Virus: highly active
[1]; human respiratory syncytial virus, MA104
  EC50: < 0.1 µg/mL
[2]
  activity against pandemic Influenza A H1N1 (California/07/2009): highly active
[2]; Influenza A virus, H1N1, MDCK
  EC50: < 0.1 µM
Lassa fever virus Josiah
  activity against Lassa Fever: active
Lassa fever virus Josiah; Vero
  EC50: 0.2 µg/mL (≈ 0.624 µM)
Mouse norovirus (MNV-1)
  EC50: 0.123 µM
  EC90: 0.384 µM
Zika Virus
  EC50: 8 µg/mL (≈ 25 µM)
[3]
  CC50: > 150 µM
